Test results: PubChem BioAssay (NCI)
“And” between values parts separate entries of the source, which are not always exact repeats. Equal entries are not always repeated.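 48-hour exposure; five concentrations; linearly interpolated endpoints. GI50: concentration for 50% inhibition of growth. TGI is the concentration that stops growth completely.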

How the values were obtained:
Assay in all cases: DTP human tumour cell line panel, 48 h
HT29 colon = tested on: HT29 colon
BT-549 breast = tested on: BT-549 breast
NCI-H23 lung = tested on: NCI-H23 lung
COLO 205 colon = tested on: COLO 205 colon
SF-295 CNS = tested on: SF-295 CNS
SW-620 colon = tested on: SW-620 colon
SNB-19 CNS = tested on: SNB-19 CNS
MOLT-4 leukemia = tested on: MOLT-4 leukemia
SK-OV-3 ovarian = tested on: SK-OV-3 ovarian
MALME-3M melanoma = tested on: MALME-3M melanoma

SMILES | GI50 (HT29 colon) | TGI (HT29 colon) [µM] | GI50 (BT-549 breast) [µM] | TGI (BT-549 breast) [µM] | GI50 (NCI-H23 lung) [µM] | TGI (NCI-H23 lung) [µM] | GI50 (COLO 205 colon) [µM] | TGI (COLO 205 colon) [µM] | GI50 (SF-295 CNS) [µM] | TGI (SF-295 CNS) [µM] | GI50 (SW-620 colon) [µM] | TGI (SW-620 colon) [µM] | GI50 (SNB-19 CNS) [µM] | TGI (SNB-19 CNS) [µM] | GI50 (MOLT-4 leukemia) [µM] | TGI (MOLT-4 leukemia) [µM] | GI50 (SK-OV-3 ovarian) [µM] | TGI (SK-OV-3 ovarian) [µM] | TGI (MALME-3M melanoma) [µM] | GI50 (MALME-3M melanoma) [µM]
CSc1ccc(C(=O)/C=C/c2ccccc2Cl)cc1 | 21.2 µM | > 100 | 15.4 | 32.9 | 15.4 | 32.5 | 33.5 | > 100 | 16.1 | 33.1 | 4.95 | 28.7 | 26.5 | 61.2 | 24 | > 100 | 32.3 | > 100 |  | 
CC(=O)O[C@H]1CC2C=CC3C(CCC31)O2 (some centres not stated) |  | > 100 |  |  |  | > 100 |  | > 100 |  |  |  | > 100 |  | > 100 |  | > 100 |  | > 100 | > 100 | 
O=[N+]([O-])c1cc2c([N+](=O)[O-])cccc2o1 |  | 66.6 |  | 31.9 |  | 37.6 |  | 16.5 |  | 42.4 |  | 7.99 |  | 36 |  |  |  | 31.3 | 30.1 | 
Fc1ccc(Nc2nc3ccccc3c3occc23)cc1 |  |  | 15.6 | 28.9 | 1.48 | 4.86 | 3.3 | 12.9 | 3.39 | 13.1 | 17 | 30.7 | 7.96 | 24.1 |  |  | 5.16 | 18.4 |  | 
COc1ccc(CCc2cc(OC)c(O)c(OC)c2)cc1 |  | > 100 |  |  |  | > 100 |  | > 100 |  |  |  | > 100 |  | > 100 |  | > 100 |  | > 100 | > 100 | 
c1ccc2c(NCCCCCCNc3cccc4ccccc34)cccc2c1 |  | > 100 |  |  |  | > 100 |  | > 100 |  | > 100 |  | > 100 |  | > 100 |  | > 100 |  | > 100 | > 100 | 
COC(=O)C(=O)C(C(=O)C(=O)Nc1cc(C)ccc1C)c1nc2ccc(C(=O)c3ccccc3)cc2[nH]c1=O (configuration not stated) |  |  |  |  |  | > 100 |  | > 100 |  | > 100 |  | > 100 |  | > 100 |  | > 100 |  |  | > 100 | 
c1ccc(N/N=C2\NN=C(c3ccccc3)CS2)cc1 |  | 24 |  |  |  | 52.3 |  |  |  | 48.6 |  | 29.9 |  | 85.9 |  | 34.1 |  | 39.9 |  | 
CCCCCCCCCCCCCB(O)O | > 100 µM and 29.9 µM | > 100 |  |  |  | > 100 |  | > 100 |  | > 100 |  | > 100 |  | > 100 |  |  |  | > 100 | > 100 | 
COc1cc(/C=C2/C(=O)N(C(=O)OCc3ccccc3)C(Cc3cc(OC)c(OC)c(C)c3OC)C(=O)N2Cc2ccccc2)c(OC)c(C)c1OC (configuration not stated) |  | > 100 |  |  |  | > 100 |  | > 100 |  | > 100 |  | > 100 |  | > 100 |  | > 100 |  | > 100 | > 100 | 
Cc1ccc2nc(NC(=O)/C(=N\NC(=S)NN)C3C(=O)NC(=S)NC3=O)sc2c1 |  | > 100 |  |  |  | > 100 |  | > 100 |  | > 100 |  | > 100 |  | > 100 |  | > 100 |  | > 100 | > 100 | 
COc1ccc2c(c1)C(=O)c1c-2c(Nc2cccc(C(C)=O)c2)nc2ccccc12 | 21.2 µM | > 100 | 9.68 | 21.4 | 4.86 | 19.3 | 37.9 | > 100 | 21.7 | 56.2 | 21.2 | > 100 | 5.99 | 18.3 | 64.6 | > 100 |  |  | 48.3 | 18
C=CCN(N=O)C(=O)NCCCCC(NC(C)=O)C(=O)NCc1ccccc1 (configuration not stated) |  | > 100 |  |  |  | > 100 |  | > 100 |  | > 100 |  | > 100 |  | > 100 |  | > 100 |  | > 100 | > 100 | 
COc1cnc2c(c1)C(=O)c1c-2n(CCCN2CCNCC2)c(=O)c2cc([N+](=O)[O-])ccc12 | 0.21 µM | 1.53 | 1.4 | 9.7 |  |  | 0.0617 | 1.79 | 0.126 | 1.07 |  |  | 0.21 | 2.1 | 0.0365 | 1.05 | 0.239 | 0.771 | 2.24 | 0.655
C=C1C(=O)O[C@H]2[C@H]1CC/C(COC(=O)NCCCCCCCCNC(=O)OC/C1=C/CC[C@@]3(C)O[C@H]3[C@H]3OC(=O)C(=C)[C@@H]3CC1)=C\CC[C@@]1(C)O[C@@H]21 | 0.228 µM | 0.554 | 0.257 | 0.748 | 0.485 | 1.74 | 0.3 | 0.756 | 1.95 | 4.82 | 0.239 | 0.686 |  |  | 0.33 | 1.18 | 3.64 | 12.3 | 0.43 | 0.199
O=C1NC(c2cccc(OCc3ccccc3)c2)Nc2ccccc21 (configuration not stated) |  | 0.239 |  |  |  | > 100 |  | 2.64 |  | 4.12 |  | > 100 |  | > 100 |  | 2.77 |  | 5.87 | 35 | 
CC1C2CC=CC(=O)[C@@]2(C)CCC12OCCO2 (some centres not stated) |  | > 100 |  |  |  | > 100 |  |  |  | > 100 |  | > 100 |  | > 100 |  | > 100 |  | > 100 | > 100 | 
[O-]c1c2c(nn1-c1ccc(Cl)cc1)c1ccccc1c[n+]2Cc1ccccc1 |  | > 100 |  |  |  | > 100 |  | > 100 |  | > 100 |  | > 100 |  | > 100 |  | > 100 |  | > 100 | > 100 | 
CCCCCC[C@H](C)NC(=O)c1ccc(Nc2nc3ccccc3c3occc23)cc1 | 2.53 µM | > 100 | 2.79 | 6.54 | 2.41 | 6.08 | 3.07 | 8.45 | 2.62 | > 100 | 3.57 | > 100 | 5.15 | > 100 | 3.4 | > 100 | 5.11 | > 100 |  | 
